Legend:
[1] = system: Salmonella typhimurium wild type; assay type: cell-based
Procedure: Preliminary characterization of the utilization of large numbers of carbon sources can be carried out using manual or automated taxonomic screening devices, such as the Biolog MT, ES, GN or GP Microplate™. Alternatively, this can be performed using commercially available components. […] Briefly, strains were swabbed onto TSA plates and grown at a permissive temperature of 30° C. for 6 hours to provide an inoculum. The inoculum (MacFarland standard ˜1 in 0.89% sterile saline solution) was prepared as per Biolog “Instructions for Use” handbook, with the exception that leucine was added to correct for mutants housed in strains which were in a leucine-deficient background. Inoculum was added to Biolog GN or ES plates and incubated at the semipermissive temperature of 35° C. overnight (˜21 hr). Carbon source utilization is read colorimetrically in a microplate reader at 600 nm. Substrates that are not used similarly by wild-type and mutant are identified. […] Typically, these steps were performed using Biolog MT plates or by using a redox indicator (such as tetrazolium violet, 0.0001%) in a minimal medium with a sole carbon source (substrate being tested), supplemented with a small amount of tryptone (0.06%) or proteose peptone (0.2%). It was possible to do this in 96-well microtiter plate format, which will be adaptable to high throughput or multichannel screening.

[2] = system: Salmonella typhimurium temperature sensitive mutant gyrA212 (strain 7533); assay type: cell-based
From the text: A Salmonella typhimurium parent strain 7389 was used to form a collection of temperature sensitive mutants. […] Complementation of the mutant phenotype was done. In the case of the three mutants described in the data of this figure (gyrA202, gyrA208, gyrA212) the complemented mutants were identified to be in the A subunit of the bacterial DNA gyrase enzyme. Each mutant was altered in a different portion (see number of mutant) of the A subunit. […] The data are expressed as fold increases in susceptibility. A four-fold increase in susceptibility is the minimum change to be considered significant in this example.
Referring to FIG. 1, the experiments were essentially by the methods outlined by the National Committee for Clinical Laboratory Standards (NCCLS). Bacteria were grown in Mueller-Hinton (MH) broth with agitation at 30° C.
The antibiotic dilution ranges used were:
Novobiocin: Range 128-0 μg/ml. Coumermycin A1: Range 128-0 μg/ml. […] Norfloxacin: Range 8-0 μg/ml. Mitomycin C: Range 8-0 μg/ml Phenylmercuric acetate: Range 32-0 μg/ml. 4-Nitroquinoline Oxide: Range 32-0 μM Rifampicin: Range 128-0 μg/ml. Gentamicin: Range 32-0 μg/ml. Streptomycin: Range 128-0 μg/ml. Cefotaxime: Range 8-0 μg/ml. Ampicillin: Range 32-0 μg/ml. Phosphonomycin (or fosfomycin): Range 128-0 μg/ml. […]

[3] = wild type with sub-MIC levels of antibiotic
[4] = wild type with sub-MIC levels of antibiotic, Biolog GN plates, 35° C.

For Cn1nnnc1SCC1=C(C(=O)O)N2C(=O)[C@@H](NC(=O)[C@H](O)c3ccccc3)[C@H]2SC1 [cefamandole], the “utilization of D-alanine or D-serine as carbon source markers” value ([1]; wild type strain, sub-MICs of cell wall synthesis inhibitor) was “affected” and the “overlap of carbon source utilization phenotype with the gyraseA/ciprofloxacin induced phenotype” value [1, 3] was 40%.
In the case of O=C(N[C@H](CO)[C@H](O)c1ccc([N+](=O)[O-])cc1)C(Cl)Cl [chloramphenicol], the “overlap of carbon source utilization phenotype with the gyraseA/ciprofloxacin induced phenotype” value [1, 3] was 40%.
O=C(O)c1cn(C2CC2)c2cc(N3CCNCC3)c(F)cc2c1=O [ciprofloxacin] was tested, and the “carbon source utilization phenotype compared with one of the gyraseA mutant alleles” value [1, 4] was “reproduces the phenotype of one of the mutant alleles perfectly” and the “overlap of carbon source utilization phenotype with the other two gyraseA mutant alleles” value [1, 4] was 46-71%.
With CCn1cc(C(=O)O)c(=O)c2cc(F)c(N3CCNCC3)cc21 [norfloxacin] the “fold increase in susceptibility” value [2] was 8 fold.
With CO[C@@H]1[C@@H](OC(N)=O)[C@@H](O)[C@H](Oc2ccc3c(O)c(NC(=O)c4ccc(O)c(CC=C(C)C)c4)c(=O)oc3c2C)OC1(C)C [novobiocin] the “carbon source utilization phenotype compared with gyraseA mutants and the ciprofloxacin induced phenotype” value [1, 3] was “very similar phenotype”.

Reference: patent US20010006794A1, “SCREENING FOR MODULATORS OF BIOMOLECULES” (priority 1995, published 2001)
